From ChEMBL document CHEMBL3352525, “RET Kinase Inhibitors May Treat Cancer and Gastrointestinal Disorders” (ACS Med Chem Lett, 2015)

Assays:
[1] = molecular target: T1, Proto-oncogene tyrosine-protein kinase receptor Ret (Homo sapiens, UniProt P07949); assay: Inhibition of human RET kinase in TT cells by TRET Kinase cell-based mechanistic assay
[2] = molecular target: T1, Proto-oncogene tyrosine-protein kinase receptor Ret; assay: Inhibition of human RET kinase cytoplasmic domain by Time-Resolved fluorescence reader assay

T1 sequence (P07949 whole entry, the tested form may be a part): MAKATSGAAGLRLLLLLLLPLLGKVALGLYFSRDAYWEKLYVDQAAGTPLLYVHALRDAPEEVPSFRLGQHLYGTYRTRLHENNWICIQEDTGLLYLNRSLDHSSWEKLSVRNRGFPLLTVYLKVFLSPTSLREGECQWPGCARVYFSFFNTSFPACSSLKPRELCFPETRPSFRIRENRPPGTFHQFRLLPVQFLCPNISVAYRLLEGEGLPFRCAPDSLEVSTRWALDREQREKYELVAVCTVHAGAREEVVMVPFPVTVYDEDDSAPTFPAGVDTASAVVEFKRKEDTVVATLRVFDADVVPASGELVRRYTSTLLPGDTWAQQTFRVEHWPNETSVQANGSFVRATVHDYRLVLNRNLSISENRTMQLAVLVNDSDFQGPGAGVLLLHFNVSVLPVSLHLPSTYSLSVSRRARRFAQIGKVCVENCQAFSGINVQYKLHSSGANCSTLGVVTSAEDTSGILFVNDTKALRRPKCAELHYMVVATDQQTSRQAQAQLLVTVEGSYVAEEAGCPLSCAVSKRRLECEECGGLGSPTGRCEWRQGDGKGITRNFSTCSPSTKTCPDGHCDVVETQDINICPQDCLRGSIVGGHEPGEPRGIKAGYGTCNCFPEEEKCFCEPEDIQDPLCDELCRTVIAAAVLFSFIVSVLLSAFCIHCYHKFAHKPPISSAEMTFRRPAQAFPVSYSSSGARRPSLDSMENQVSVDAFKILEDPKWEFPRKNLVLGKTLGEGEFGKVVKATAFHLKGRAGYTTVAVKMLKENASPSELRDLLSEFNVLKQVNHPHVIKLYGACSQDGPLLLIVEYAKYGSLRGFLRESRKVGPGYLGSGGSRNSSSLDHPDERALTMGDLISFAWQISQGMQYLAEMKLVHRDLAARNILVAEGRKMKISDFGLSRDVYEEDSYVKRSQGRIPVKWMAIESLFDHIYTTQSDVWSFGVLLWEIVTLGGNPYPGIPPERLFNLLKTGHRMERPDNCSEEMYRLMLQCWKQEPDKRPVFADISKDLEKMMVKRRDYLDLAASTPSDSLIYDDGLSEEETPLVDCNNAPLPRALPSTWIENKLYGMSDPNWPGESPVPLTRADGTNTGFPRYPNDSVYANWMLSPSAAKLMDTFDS

IC50 [1]: > 500 nM | IC50 [2]: ≥ 100 nM
Compound: CCOc1cc(-c2ccc(CC(=O)Nc3ccc(Cl)c(Cl)c3)c(F)c2)c[nH]c1=O
